How the values were obtained:
Assay type in all cases: cell-based
[1] = tested on: 4T1 murine breast cancer cell line (suspending culture, cancer stem cells); test: RTQ-PCR of stem cell marker genes in suspension-cultured 4T1 cells with or without Wnt signaling inhibitor; conditions: 1 μM applied 4 times, once in two days, 8 days suspending culture
Method: Then, the 4T1 murine breast cancer cell line was added with a DMEM medium containing 20 ng/mL of EGF, 20 ng/mL of bFGF, 4 μg/mL of heparin, and B27, and cultured via suspending culture at 37° C. with […] for 7 days to obtain a culture product in a spherical form.
First, 4T1 murine breast cancer cell line was cultured via the suspending culturing method in the same manner as in Example 1-1 for 8 days under the condition of with or without the treatment of the Wnt signaling inhibitor (CWP232228, JW Pharmaceutical, Korea). In particular, the Wnt signaling inhibitor was applied a total of 4 times once in two days at a concentration of 1 μM.
Then, the thus obtained culture products were subjected to RNeasy Plus Mini Kit (Qiagen Inc, Valencia, Calif.) and the total RNA was extracted from each of the culture products. The thus-extracted each of the total RNA was subjected to random hexamer and ReverAid H Minus First Strand cDNA Synthesis Kit (Thermo scientific) to synthesize their respective cDNAs. […] The data obtained via RTQ-PCR was analyzed and, based on the 2-deltadelta ct values among the respective cells cultured, the genes with at least a 2-fold difference and a P value<0.05 were selected. […]

[2] = tested on: 4T1 murine breast cancer cell line; test: IGF1 immunofluorescence staining, 4T1 cells with or without Wnt signaling inhibitor
Method: (§1) In order to confirm the expression level of IGF1 gene, one of the five genes discovered above, within a cell, the 4T1 murine breast cancer cell line and MCF7 human breast cancer cell line were cultured via adhesion culture method and suspending culture method in the same manner as in Example 1 under the condition of with or without the treatment of the Wnt signaling inhibitor (CWP232228, JW Pharmaceutical, Korea) and thereby obtained the respective culture products.
(§2) The thus obtained respective culture products were added with mouse anti-IGF1 antibodies (Milipore, cat. #05-172) to perform a primary reaction, and then added with anti-mouse IgG antibodies (Invitrogen cat.A11001) to perform a secondary reaction, thereby performing an immunofluorescence staining regarding the IGF1 gene, which was observed under an optical microscope (Zeiss LSM 510) and the expression level of IGF1 was measured (FIG. 3).

[3] = tested on: MCF7 human breast cancer cell line; test: IGF1 immunofluorescence staining, MCF7 cells with or without Wnt signaling inhibitor
Method: as §1, §2

[4] = adhesion culture, regardless of treatment
[5] = suspending culture (cancer stem cells)

SMILES: C=CCN1CC(=O)N2[C@@H](Cc3ccc(OP(=O)([O-])[O-])cc3)C(=O)N(Cc3cccc4cn(C)nc34)C[C@@H]2N1C(=O)NCc1ccccc1.[Na+].[Na+] [CWP232228]
- difference in expression of IGF1, Id2, MMP2, MMP9 and Wnt5a genes (2-deltadelta ct, Stem cell PCR array) treated vs untreated ([1]; P value<0.05): ≥ 2 fold
- expression of IGF1, Id2, MMP2, MMP9 and Wnt5a genes by RTQ-PCR with specific primers (FIG. 2) ([1]; treated vs untreated): significant difference in their expression
- IGF1 gene expression (immunofluorescence, FIG. 3) [2, 4]: not expressed
- level of IGF1 gene expression (immunofluorescence, FIG. 3) [2, 5]: deceased
- IGF1 gene expression (immunofluorescence, FIG. 3) [3, 4]: not expressed
- level of IGF1 gene expression (immunofluorescence, FIG. 3) [3, 5]: deceased

From patent US20180128815A1, “METHOD OF SCREENING AN AGENT FOR INHIBITING RECURRENCE OR METASTASIS OF BREAST CANCER” (GACHON UNIVERSITY OF INDUSTRY-ACADEMIC COOPERATION …, priority 2014, published 2018)
